Legend:
[1] = biological target: T1, Alpha-1A adrenergic receptor (Homo sapiens) (UniProt P35348); experiment: Antagonist activity at human full-length N-terminal SNAP-tagged alpha1A adrenoceptor expressed in HEK293 cells assessed as inhibition of agonist-induced calcium mobilization at 10 uM preincubated for 10 mins followed by agonist addition by fluo-4 AM dye-based assay relative to control; type: functional, cell-based
T1 sequence (whole entry): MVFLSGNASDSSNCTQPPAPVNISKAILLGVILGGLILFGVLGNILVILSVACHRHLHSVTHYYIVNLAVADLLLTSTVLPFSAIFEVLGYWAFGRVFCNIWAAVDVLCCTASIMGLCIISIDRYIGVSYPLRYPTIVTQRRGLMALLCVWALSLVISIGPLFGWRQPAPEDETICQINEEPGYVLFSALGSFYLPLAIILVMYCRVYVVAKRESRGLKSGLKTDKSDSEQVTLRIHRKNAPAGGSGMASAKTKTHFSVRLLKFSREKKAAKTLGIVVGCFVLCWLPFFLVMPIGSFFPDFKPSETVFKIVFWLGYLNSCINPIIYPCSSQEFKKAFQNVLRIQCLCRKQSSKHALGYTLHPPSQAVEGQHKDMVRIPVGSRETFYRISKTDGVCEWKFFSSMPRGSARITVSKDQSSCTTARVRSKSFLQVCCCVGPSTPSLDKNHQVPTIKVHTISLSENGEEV

[2] = biological target: T2, Alpha-1A adrenergic receptor (Homo sapiens, UniProt P35348)
T2 sequence (P35348 whole entry): T1 sequence (whole entry)
Description: Antagonist activity at human full-length N-terminal SNAP-tagged alpha1A adrenoceptor expressed in HEK293 cells assessed as inhibition of agonist-induced calcium mobilization preincubated for 10 mins followed by agonist addition by fluo-4 AM dye-based assay

Homo sapiens [3] = organism: Homo sapiens; experiment: Selectivity ratio of IC50 for human full-length N-terminal SNAP-tagged alpha1B adrenoceptor to IC50 for human full-length N-terminal SNAP-tagged alpha1A adrenoceptor
Homo sapiens [4] = organism: Homo sapiens; experiment: Selectivity ratio of IC50 for human full-length N-terminal SNAP-tagged alpha1D adrenoceptor to IC50 for human full-length N-terminal SNAP-tagged alpha1A adrenoceptor
[5] = biological target: T3, Alpha-1B adrenergic receptor (Homo sapiens, UniProt P35368)
T3 sequence (P35368 whole entry): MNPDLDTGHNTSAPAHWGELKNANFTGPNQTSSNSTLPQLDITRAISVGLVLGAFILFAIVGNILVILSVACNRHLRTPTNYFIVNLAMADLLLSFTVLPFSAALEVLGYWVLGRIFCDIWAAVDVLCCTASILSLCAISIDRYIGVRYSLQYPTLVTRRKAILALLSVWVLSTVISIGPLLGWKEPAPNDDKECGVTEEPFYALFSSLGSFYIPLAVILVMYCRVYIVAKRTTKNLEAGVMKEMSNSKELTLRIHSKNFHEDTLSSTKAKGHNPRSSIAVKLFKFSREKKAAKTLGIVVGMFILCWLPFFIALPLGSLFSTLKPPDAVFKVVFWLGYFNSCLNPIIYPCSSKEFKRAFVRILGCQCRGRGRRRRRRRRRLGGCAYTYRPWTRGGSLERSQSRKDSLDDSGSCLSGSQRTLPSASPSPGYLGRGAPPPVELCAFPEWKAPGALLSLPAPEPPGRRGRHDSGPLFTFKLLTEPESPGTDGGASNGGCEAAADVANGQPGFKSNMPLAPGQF
Description: Antagonist activity at human full-length N-terminal SNAP-tagged alpha1B adrenoceptor expressed in HEK293 cells assessed as inhibition of agonist-induced calcium mobilization preincubated for 10 mins followed by agonist addition by fluo-4 AM dye-based assay

[6] = biological target: T4, Alpha-1D adrenergic receptor (Homo sapiens, UniProt P25100)
T4 sequence (P25100 whole entry): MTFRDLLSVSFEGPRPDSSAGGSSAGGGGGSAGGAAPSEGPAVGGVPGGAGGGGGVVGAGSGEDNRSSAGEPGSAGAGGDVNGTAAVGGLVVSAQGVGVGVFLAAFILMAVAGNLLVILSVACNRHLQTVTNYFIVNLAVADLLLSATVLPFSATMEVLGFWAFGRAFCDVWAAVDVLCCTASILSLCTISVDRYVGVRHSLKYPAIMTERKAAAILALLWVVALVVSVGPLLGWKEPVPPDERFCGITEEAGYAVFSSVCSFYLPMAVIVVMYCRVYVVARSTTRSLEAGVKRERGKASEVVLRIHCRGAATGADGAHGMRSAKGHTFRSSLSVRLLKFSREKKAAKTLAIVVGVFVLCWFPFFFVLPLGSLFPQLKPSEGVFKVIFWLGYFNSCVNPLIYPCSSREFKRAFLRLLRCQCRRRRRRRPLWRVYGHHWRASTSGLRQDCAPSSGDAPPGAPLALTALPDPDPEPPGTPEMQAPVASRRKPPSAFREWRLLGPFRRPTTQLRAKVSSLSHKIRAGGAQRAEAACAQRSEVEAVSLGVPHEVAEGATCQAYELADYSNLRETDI
Description: Antagonist activity at human full-length N-terminal SNAP-tagged alpha1D adrenoceptor expressed in HEK293 cells assessed as inhibition of agonist-induced calcium mobilization preincubated for 10 mins followed by agonist addition by fluo-4 AM dye-based assay

[7] = biological target: T5, Alpha-1A adrenergic receptor (Rattus norvegicus, UniProt P43140); experiment: Displacement of [125I]-BE2254 from Wistar rat alpha1A adrenoceptor after 20 mins
T5 sequence (P43140 whole entry): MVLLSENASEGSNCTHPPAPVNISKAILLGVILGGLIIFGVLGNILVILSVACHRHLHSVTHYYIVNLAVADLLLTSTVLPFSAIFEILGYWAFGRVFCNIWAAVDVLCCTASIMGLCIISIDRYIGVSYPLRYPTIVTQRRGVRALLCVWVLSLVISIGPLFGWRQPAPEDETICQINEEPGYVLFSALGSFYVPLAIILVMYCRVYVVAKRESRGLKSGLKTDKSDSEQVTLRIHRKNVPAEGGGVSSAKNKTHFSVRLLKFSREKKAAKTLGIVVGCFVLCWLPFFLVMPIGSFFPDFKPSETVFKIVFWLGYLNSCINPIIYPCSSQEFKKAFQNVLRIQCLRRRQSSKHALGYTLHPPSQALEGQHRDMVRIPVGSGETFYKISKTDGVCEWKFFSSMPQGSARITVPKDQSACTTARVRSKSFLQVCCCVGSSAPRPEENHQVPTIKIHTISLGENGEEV

[8] = biological target: T5, Alpha-1A adrenergic receptor; experiment: Antagonist activity at alpha1A adrenoceptor in Sprague-Dawley rat urethra assessed as inhibition of norepinephrine-induced smooth muscle contraction after 20 mins
[9] = biological target: T6, Alpha-1B adrenergic receptor (Rattus norvegicus, UniProt P15823); experiment: Antagonist activity at alpha1B adrenoceptor in Sprague-Dawley rat aorta assessed as inhibition of norepinephrine-induced smooth muscle contraction after 20 mins
T6 sequence (P15823 whole entry): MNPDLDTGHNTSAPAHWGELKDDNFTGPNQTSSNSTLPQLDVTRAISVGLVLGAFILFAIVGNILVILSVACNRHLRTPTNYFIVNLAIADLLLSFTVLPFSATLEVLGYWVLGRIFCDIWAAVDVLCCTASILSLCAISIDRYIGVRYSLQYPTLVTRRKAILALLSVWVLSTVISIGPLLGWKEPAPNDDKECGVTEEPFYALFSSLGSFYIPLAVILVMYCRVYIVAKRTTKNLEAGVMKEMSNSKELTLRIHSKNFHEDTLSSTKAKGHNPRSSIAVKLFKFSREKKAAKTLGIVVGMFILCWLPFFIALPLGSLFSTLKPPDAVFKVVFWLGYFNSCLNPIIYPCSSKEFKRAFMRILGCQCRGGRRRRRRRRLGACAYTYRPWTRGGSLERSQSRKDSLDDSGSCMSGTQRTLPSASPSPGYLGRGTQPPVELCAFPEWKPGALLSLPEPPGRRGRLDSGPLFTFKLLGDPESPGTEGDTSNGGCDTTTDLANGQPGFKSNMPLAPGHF

[10] = Selectivity ratio of IC50 for alpha1B adrenoceptor in Sprague-Dawley rat aorta to IC50 for alpha1A adrenoceptor in Sprague-Dawley rat urethra
Rattus norvegicus [11] = experiment: Inhibition of micturition frequency in po dosed Sprague-Dawley rat benign prostatic hyperplasia model administered 20 mins followed by distilled watering loading measured for 2 hrs; type: functional; details: read-out: MED
Rattus norvegicus [12] = experiment: Increase in voided volume in po dosed Sprague-Dawley rat benign prostatic hyperplasia model administered 20 mins followed by distilled watering loading measured for 2 hrs; type: functional; details: read-out: MED
[13] = biological target: Voltage-gated inwardly rectifying potassium channel KCNH2 (Homo sapiens, UniProt Q12809); experiment: Inhibition of human ERG
Voltage-gated inwardly rectifying potassium channel KCNH2, sequence (Q12809 whole entry): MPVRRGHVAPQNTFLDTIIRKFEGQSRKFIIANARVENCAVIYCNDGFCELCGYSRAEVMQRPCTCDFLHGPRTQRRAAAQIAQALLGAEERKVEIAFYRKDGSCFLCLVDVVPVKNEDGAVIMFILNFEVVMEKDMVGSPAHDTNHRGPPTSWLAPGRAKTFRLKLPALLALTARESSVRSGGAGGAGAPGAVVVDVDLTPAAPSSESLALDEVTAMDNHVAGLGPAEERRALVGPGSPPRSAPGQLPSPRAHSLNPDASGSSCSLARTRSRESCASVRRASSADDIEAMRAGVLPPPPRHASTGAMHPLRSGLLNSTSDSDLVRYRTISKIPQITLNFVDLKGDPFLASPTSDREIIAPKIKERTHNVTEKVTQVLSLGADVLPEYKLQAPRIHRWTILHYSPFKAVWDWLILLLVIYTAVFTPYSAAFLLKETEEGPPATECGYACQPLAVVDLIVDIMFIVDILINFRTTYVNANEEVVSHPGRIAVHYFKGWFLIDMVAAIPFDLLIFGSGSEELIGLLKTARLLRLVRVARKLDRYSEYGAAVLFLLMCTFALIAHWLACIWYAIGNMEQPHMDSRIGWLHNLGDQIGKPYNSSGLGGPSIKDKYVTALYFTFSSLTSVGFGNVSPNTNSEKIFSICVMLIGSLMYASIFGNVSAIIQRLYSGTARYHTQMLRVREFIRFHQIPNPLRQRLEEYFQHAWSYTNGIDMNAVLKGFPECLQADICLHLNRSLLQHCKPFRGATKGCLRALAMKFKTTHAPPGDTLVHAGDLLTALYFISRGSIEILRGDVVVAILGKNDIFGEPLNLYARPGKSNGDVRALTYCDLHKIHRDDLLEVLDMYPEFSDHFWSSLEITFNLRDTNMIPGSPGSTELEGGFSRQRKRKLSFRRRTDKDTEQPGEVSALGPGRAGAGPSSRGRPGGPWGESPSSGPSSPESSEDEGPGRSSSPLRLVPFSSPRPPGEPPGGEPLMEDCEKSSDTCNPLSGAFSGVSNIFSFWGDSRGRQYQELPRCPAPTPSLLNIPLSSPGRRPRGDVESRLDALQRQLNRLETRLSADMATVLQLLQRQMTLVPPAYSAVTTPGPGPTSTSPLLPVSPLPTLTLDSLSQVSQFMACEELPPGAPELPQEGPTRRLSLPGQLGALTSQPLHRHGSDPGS

SMILES	inhibition [1] [%]	IC50 [2] [nM]	other results
COc1cc2c(cc1OC)C1Cc3c([nH]c4ccccc34)C(c3ccc(F)cc3)N1CC2 (centres undefined)	0		
CCCCOc1cc2c(cc1OC)C1Cc3c([nH]c4ccc(OC)cc34)CN1CC2 (centres undefined)	63		
COc1ccc(C2c3[nH]c4ccccc4c3CC3c4cc(OC)c(OC)cc4CCN32)cc1 (centres undefined)	21		
COc1ccc2c(c1OC)CN1CCc3cc4c(cc3C1C2)OCO4 (centres undefined) [TETRAHYDROBERBERINE]			Ki [7]: 1120 nM
CCOc1ccccc1OCCN[C@H](C)Cc1ccc(OC)c(S(N)(=O)=O)c1 [TAMSULOSIN]	100		IC50 [5]: 4.8 nM; IC50 [6]: 1.4 nM
COc1ccc2c(c1OC)CN1CCc3cc4c(cc3[C@@H]1C2)OCO4 [CANADINE]		5400	
COc1cc2c(cc1OC)[C@@H]1Cc3ccc(OC)c(OC)c3CN1CC2	41.2		
CCCCOc1cc2c(cc1OC)CCN1Cc3[nH]c4ccc(OC)cc4c3CC21 (centres undefined)	98	2290	
COc1ccc2c(c1)CCN1C(C)c3[nH]c4ccccc4c3CC21 (centres undefined)	90	8670	
COc1ccc(C2c3[nH]c4ccccc4c3CC3c4ccc(OC)cc4CCN32)cc1 (centres undefined)	80	> 10000	
COc1ccc2c(c1)CCN1C2Cc2c([nH]c3ccccc23)C1C1CC1 (centres undefined)	31		
COc1cc2c(cc1O)[C@@H]1Cc3ccc(O)c(OC)c3CN1CC2 [STEPHOLIDINE]			Ki [7]: 2240 nM
COc1cc2c(cc1OC)C1Cc3c([nH]c4ccccc34)C(CC(C)C)N1CC2 (centres undefined)	72		
COc1cc2cc[n+]3c(c2cc1OC)Cc1ccc(OC)c(OC)c1C3		7600	
COc1cc2c(cc1O)[C@@H]1Cc3c(Cl)cc(OC)c(O)c3CN1CC2			Ki [7]: 1380 nM
COc1cc2c(cc1OC)C1Cc3c([nH]c4ccccc34)C(c3ccccc3)N1CC2 (centres undefined)	0		

Second part, led by results:

inhibition [1] [%]	IC50 [2] [nM]	SMILES	other results
100	552	COc1ccc2c(c1)CCN1Cc3[nH]c4ccccc4c3CC21 (centres undefined)	
100	202	COc1cccc2[nH]c3c(c12)CC1c2cc4c(cc2CCN1C3)OCO4 (centres undefined)	Ratio IC50 (Homo sapiens [3]): > 19.4; Ratio IC50 (Homo sapiens [4]): > 19.4; IC50 [5]: > 10000 nM; IC50 [6]: > 10000 nM
99	57.4	c1ccc2c3c([nH]c2c1)CN1CCc2cc4c(cc2[C@@H]1C3)OCO4	Ratio IC50 (Homo sapiens [3]): > 174; Ratio IC50 (Homo sapiens [4]): > 174; IC50 [5]: > 10000 nM; IC50 [6]: > 10000 nM
100	3190	COc1ccc2[nH]c3c(c2c1)C[C@@H]1c2cc4c(cc2CCN1C3)OCO4	
17		CCOc1cc2c(cc1OC)C1Cc3c([nH]c4ccc(OC)cc34)CN1CC2 (centres undefined)	
	462	c1c2c(cc3c1OCO3)CN1CCc3cc4c(cc3C1C2)OCO4 (centres undefined)	
100	2880	c1ccc(COc2ccc3[nH]c4c(c3c2)CC2c3cc5c(cc3CCN2C4)OCO5)cc1 (centres undefined)	
100	225	CCCOc1cc2c(cc1OC)CCN1Cc3[nH]c4ccc(OC)cc4c3CC21 (centres undefined)	Ratio IC50 (Homo sapiens [3]): > 44.4; Ratio IC50 (Homo sapiens [4]): > 44.4; IC50 [5]: > 10000 nM; IC50 [6]: > 10000 nM
100	594	COc1ccc2c3c([nH]c2c1)CN1CCc2cc4c(cc2C1C3)OCO4 (centres undefined)	Ratio IC50 (Homo sapiens [3]): > 16.8; Ratio IC50 (Homo sapiens [4]): > 16.8; IC50 [5]: > 10000 nM; IC50 [6]: > 10000 nM
0		COc1ccc2[nH]c3c(c2c1)CC1c2cc(OC)c(O)cc2CCN1C3 (centres undefined)	
0		CC(C)CC1c2[nH]c3ccccc3c2CC2c3cc4c(cc3CCN21)OCO4 (centres undefined)	
99	17.6	COc1ccc2[nH]c3c(c2c1)CC1c2cc4c(cc2CCN1C3)OCO4 (centres undefined)	Ratio IC50 (Homo sapiens [3]): > 568; Ratio IC50 (Homo sapiens [4]): 229; IC50 [8]: 45.4 nM; IC50 [9]: > 1000 nM; Ratio IC50 [10]: >22.02; minimal effective dose (Rattus norvegicus [11]): 10 mg/kg; minimal effective dose (Rattus norvegicus [12]): 3 mg/kg; IC50 [13]: 16500 nM; IC50 [5]: > 10000 nM; IC50 [6]: 4040 nM
21		CCCOc1cc2c(cc1OC)C1Cc3c([nH]c4ccc(OC)cc34)CN1CC2 (centres undefined)	
56		COc1ccc2[nH]c3c(c2c1)CC1c2cc(O)c(OC)cc2CCN1C3 (centres undefined)	
100	254	Fc1ccc2[nH]c3c(c2c1)CC1c2cc4c(cc2CCN1C3)OCO4 (centres undefined)	Ratio IC50 (Homo sapiens [3]): > 39.4; Ratio IC50 (Homo sapiens [4]): 33.1; IC50 [5]: > 10000 nM; IC50 [6]: 8390 nM
0		Fc1ccc(C2c3[nH]c4ccccc4c3CC3c4cc5c(cc4CCN32)OCO5)cc1 (centres undefined)	
0		COc1ccc(C2c3[nH]c4ccccc4c3CC3c4cc5c(cc4CCN32)OCO5)cc1 (centres undefined)	
82	> 10000	CCC1c2[nH]c3ccccc3c2CC2c3cc4c(cc3CCN21)OCO4 (centres undefined)	
60		COc1cc2c(cc1OC)C1Cc3c([nH]c4ccccc34)CN1CC2 (centres undefined)	
100	125	c1ccc2c3c([nH]c2c1)CN1CCc2cc4c(cc2C1C3)OCO4 (centres undefined)	Ratio IC50 (Homo sapiens [3]): > 80; Ratio IC50 (Homo sapiens [4]): > 80; IC50 [5]: > 10000 nM; IC50 [6]: > 10000 nM
75		CCOc1cc2c(cc1OC)CCN1Cc3[nH]c4ccc(OC)cc4c3CC21 (centres undefined)	
100	2060	Fc1ccc2c3c([nH]c2c1)CN1CCc2cc4c(cc2C1C3)OCO4 (centres undefined)	
